Assay results as given in paper PMC11699025 (Natural Products and Bioprospecting, 2025).
“And” between values parts separate entries of the source, which are not always exact repeats. Identical values can stand only once.

Key:
Format in all cases: binding
[1] = target: SARS-CoV-2 Mpro F3A (Severe acute respiratory syndrome coronavirus 2, UniProt P0DTD1, F3266A)
[2] = target: SARS-CoV-2 Mpro R4A (Severe acute respiratory syndrome coronavirus 2, UniProt P0DTD1, R3267A)
[3] = target: SARS-CoV-2 Mpro K5A (Severe acute respiratory syndrome coronavirus 2, UniProt P0DTD1, K3268A)
[4] = target: SARS-CoV-2 Mpro Y126A (Severe acute respiratory syndrome coronavirus 2, UniProt P0DTD1, Y3389A)
[5] = target: SARS-CoV-2 Mpro N142A (Severe acute respiratory syndrome coronavirus 2, UniProt P0DTD1, N3405A)
[6] = target: SARS-CoV-2 Mpro E288A (Severe acute respiratory syndrome coronavirus 2, UniProt P0DTD1, E3551A)
[7] = target: SARS-CoV-2 Mpro F291A (Severe acute respiratory syndrome coronavirus 2, UniProt P0DTD1, F3554A)
[8] = target: SARS-CoV-2 PLpro D164A (Severe acute respiratory syndrome coronavirus 2, UniProt P0DTD1, D1727A)
[9] = target: SARS-CoV-2 PLpro R166A (Severe acute respiratory syndrome coronavirus 2, UniProt P0DTD1, R1729A)
[10] = target: SARS-CoV-2 PLpro Y264A (Severe acute respiratory syndrome coronavirus 2, UniProt P0DTD1, Y1827A)
[11] = target: SARS-CoV-2 PLpro Y268A (Severe acute respiratory syndrome coronavirus 2, UniProt P0DTD1, Y1831A)
[12] = target: SARS-CoV-2 PLpro Y273A (Severe acute respiratory syndrome coronavirus 2, UniProt P0DTD1, Y1836A)
[13] = target: SARS-CoV-2 PLpro Y251A (Severe acute respiratory syndrome coronavirus 2, UniProt P0DTD1, Y1814A)
[14] = target: SARS-CoV-2 PLpro E252A (Severe acute respiratory syndrome coronavirus 2, UniProt P0DTD1, E1815A)
[15] = target: SARS-CoV-2 PLpro L253A (Severe acute respiratory syndrome coronavirus 2, UniProt P0DTD1, L1816A)
[16] = target: SARS-CoV-2 PLpro K254A (Severe acute respiratory syndrome coronavirus 2, UniProt P0DTD1, K1817A)
[17] = target: SARS-CoV-2 PLpro T257A (Severe acute respiratory syndrome coronavirus 2, UniProt P0DTD1, T1820A)
[18] = target: SARS-CoV-2 PLpro F258A (Severe acute respiratory syndrome coronavirus 2, UniProt P0DTD1, F1821A)
[19] = target: SARS-CoV-2 PLpro V303A (Severe acute respiratory syndrome coronavirus 2, UniProt P0DTD1, V1866A)

## Cc1cc(O)c(O)c(Oc2cc(C)cc(O)c2Oc2cc(C)cc(O)c2O)c1 [Sydowiol B, sydowiol B]
[1]
  Tm value: 53.05 ± 0.12 (1.05) ℃ and 52.84 ± 0.19 (0.84) ℃ and 53.05 ± 0.03 (1.05) ℃
  △Tm: 53.05 ± 0.12 (1.05) ℃ and 52.84 ± 0.19 (0.84) ℃ and 53.05 ± 0.03 (1.05) ℃
[2]
  Tm value: 54.54 ± 0.06 (0.84) ℃ and 54.25 ± 0.27 (0.55) ℃ and 54.16 ± 0.03 (0.46) ℃
  △Tm: 54.54 ± 0.06 (0.84) ℃ and 54.25 ± 0.27 (0.55) ℃ and 54.16 ± 0.03 (0.46) ℃
[3]
  Tm value: 47.98 ± 0.07 (0.63) ℃
  △Tm: 47.98 ± 0.07 (0.63) ℃
[4]
  Tm value: 47.88 ± 0.22 (1.58) ℃
  △Tm: 47.88 ± 0.22 (1.58) ℃
[5]
  Tm value: 58.18 ± 0.03 (5.56) ℃ and 57.22 ± 0.07 (4.60) ℃ and 56.43 ± 0.24 (3.81) ℃
  △Tm: 58.18 ± 0.03 (5.56) ℃ and 57.22 ± 0.07 (4.60) ℃ and 56.43 ± 0.24 (3.81) ℃
[6]
  Tm value: 54.03 ± 0.10 (1.14) ℃ and 53.21 ± 0.11 (0.32) ℃
  △Tm: 54.03 ± 0.10 (1.14) ℃ and 53.21 ± 0.11 (0.32) ℃
[7]
  Tm value: 61.29 ± 0.01 (-0.08) ℃ and 61.37 ± 0.01 (0.00) ℃ and 61.44 ± 0.01 (0.07) ℃
  △Tm: 61.29 ± 0.01 (-0.08) ℃ and 61.37 ± 0.01 (0.00) ℃ and 61.44 ± 0.01 (0.07) ℃
[8]
  Tm value: 44.58 ± 0.62 (2.03) ℃ and 45.84 ± 0.11 (3.29) ℃ and 46.83 ± 0.21 (4.28) ℃
  △Tm: 44.58 ± 0.62 (2.03) ℃ and 45.84 ± 0.11 (3.29) ℃ and 46.83 ± 0.21 (4.28) ℃
[9]
  Tm value: 50.86 ± 0.55 (3.18) ℃
  △Tm: 50.86 ± 0.55 (3.18) ℃
[10]
  Tm value: 46.21 ± 0.86 (0.01) ℃ and 45.93 ± 0.03 (-0.27) ℃ and 46.48 ± 0.43 (0.28) ℃
  △Tm: 46.21 ± 0.86 (0.01) ℃ and 45.93 ± 0.03 (-0.27) ℃ and 46.48 ± 0.43 (0.28) ℃
[11]
  Tm value: 50.46 ± 0.65 (3.82) ℃
  △Tm: 50.46 ± 0.65 (3.82) ℃
[12]
  Tm value: 51.09 ± 0.23 (-0.85) ℃ and 50.59 ± 0.10 (-1.35) ℃ and 51.21 ± 0.00 (-0.73) ℃
  △Tm: 51.09 ± 0.23 (-0.85) ℃ and 50.59 ± 0.10 (-1.35) ℃ and 51.21 ± 0.00 (-0.73) ℃
[13]
  Tm value: 47.78 ± 0.39 (2.41) ℃ and 46.46 ± 0.07 (1.09) ℃
  △Tm: 47.78 ± 0.39 (2.41) ℃ and 46.46 ± 0.07 (1.09) ℃
[14]
  Tm value: 44.10 ± 0.20 (0.75) ℃ and 45.88 ± 0.48 (2.53) ℃ and 47.86 ± 0.13 (4.51) ℃
  △Tm: 44.10 ± 0.20 (0.75) ℃ and 45.88 ± 0.48 (2.53) ℃ and 47.86 ± 0.13 (4.51) ℃
[15]
  Tm value: 50.09 ± 0.49 °C
[16]
  Tm value: 46.61 ± 0.16 (3.31) ℃ and 46.23 ± 0.29 (2.93) ℃
  △Tm: 46.61 ± 0.16 (3.31) ℃ and 46.23 ± 0.29 (2.93) ℃
[17]
  Tm value: 47.76 ± 0.27 (4.16) ℃
  △Tm: 47.76 ± 0.27 (4.16) ℃
[18]
  Tm value: 47.68 ± 0.06 °C
[19]
  Tm value: 52.24 ± 0.13 (5.12) ℃
  △Tm: 52.24 ± 0.13 (5.12) ℃
